Data taken from patent US11578083B2, “Pyrimidinium compounds and their mixtures for combating animal pests” (BASF SE, priority 2017, dated 2023).

Key:
Type in all cases: in vivo
[1] = test system: Cowpea aphid (Aphis craccivora); assay: B.3 Cowpea aphid leaf disk test; conditions: foliar, 120 h
Method: If not otherwise specified, the test solutions are prepared as follows:
The active compound is dissolved at the desired concentration in a mixture of 1:1 (vol:vol) distilled water: acetone. The test solution is prepared at the day of use.
B.3 Cowpea aphid (Aphis craccivora):
For evaluating control of Cowpea aphid through contact or systemic means the test unit consists of 24-well-microtiter plates containing broad bean leaf disks.
The compounds are formulated using a solution containing 75% v/v water and 25% v/v DMSO. Different concentrations of formulated compounds are sprayed onto the leaf disks at 2.5 μl, using a custom built micro atomizer, at two replications.
After application, the leaf disks are air-dried and 5-8 adult aphids placed on the leaf disks inside the microtiter plate wells. The aphids are then allowed to suck on the treated leaf disks and incubated at about 23±1° C. and about 50±5% relative humidity for 5 days. Aphid mortality and fecundity is then visually assessed.

[2] = test system: Rice green leafhopper (Nephotettix virescens); assay: B.1 Rice green leafhopper, sprayed rice seedlings; conditions: 72 h
Method: B.1 Rice Green Leafhopper (Nephotettix virescens):
(§1) Rice seedlings are cleaned and washed 24 hours before spraying. The active compounds are formulated in 50:50 acetone:water (vol:vol), and 0.1% vol/vol surfactant (EL 620) is added. Potted rice seedlings are sprayed with 5 ml test solution, air dried, placed in cages and inoculated with 10 adults. Treated rice plants are kept at about 28-29° C. and relative humidity of about 50-60%. Percent mortality is recorded after 72 hours.

[3] = test system: Rice brown plant hopper (Nilaparvata lugens); assay: B.2 Rice brown plant hopper, sprayed rice seedlings; conditions: 72 h
Method: B.2 Rice Brown Plant Hopper (Nilaparvata lugens):
as §1, with “(vol:vol)” for “(vol:vol),”

[4] = test system: Thrips (Dichromothrips corbetti); assay: B.4 Thrips floral-immersion test; conditions: 72 h
Method: B.4 Thrips (Dichromothrips Corbetti):
Dichromothrips corbetti adults used for bioassay are obtained from a colony maintained continuously under laboratory conditions. For testing purposes, the test compound is diluted in a 1:1 mixture of acetone:water (vol:vol), plus 0.01% vol/vol Alkamuls® EL 620 surfactant.
Thrips potency of each compound is evaluated by using a floral-immersion technique. Plastic petri dishes are used as test arenas. All petals of individual, intact orchid flowers are dipped into treatment solution and allowed to dry. Treated flowers are placed into individual petri dishes along with about 20 adult thrips. The petri dishes v then covered with lids. All test arenas are held under continuous light and a temperature of about 28° C. for duration of the assay. After 3 days, the numbers of live thrips are counted on each flower, and along inner walls of each petri dish. The percent mortality is recorded 72 hours after treatment.

[5] = test system: Chilo suppressalis; assay: B.3a Rice stem borer vial bioassay; conditions: 72 h
Method: Field-collected rice straws were washed with tap water and cut for a certain of length. Straws were air dried before placing individually in vials (=replicate, 3×). About 125 μl test solution was sprayed per vial. Treated rice straws in vials were air dried under the laboratory hood. After air-drying, each straw was inoculated with 10 newly-emerged (0-day old) stem borer larvae. Vials were then covered. Set-up was kept in a holding room maintained at 27° C. and 65% RH for three days. At 3 days after inoculation, rice straws were manually dissected for larval mortality assessment. The data (Table C) show activity against two species of rice stem borers.

[6] = test system: Chilo suppressalis; assay: B.3b Rice striped stem borer, foliar spraying
Method: All three pots (=replicates) of four to five-week old potted rice per treatment were simultaneously sprayed with 12 mL test solution. After spray application, plants were air dried in the laboratory before inoculation. After air-drying, 5 to 6-day old egg masses of CHILSU were used for inoculation. All stem borer-infested potted rice plants were transferred inside the screenhouse 1 day after inoculation until the final assessment. […] Whole plant damage was assessed before cutting each hill at the basal portion for tiller dissection. Each dissected tiller was inspected looking for dead (if possible) and alive stemborer larvae.

[7] = test system: Chilo suppressalis; assay: B.3c Rice striped stem borer, drench application; conditions: Chilo suppressalis neonates, Dose 10 mg, 14 DAT
Source text: The test solution was poured onto the soil of each potted rice plant (=replicate) with five tillers each pot. After drench application, treated plants were transferred inside the screenhouse for three days prior to stemborer inoculation inside the laboratory. Three days after drench application, 5 to 6-day old egg masses of CHILSU were used for inoculation. All stemborer-infested potted rice plants were transferred inside the screenhouse 1 day after inoculation until the final assessment. […] Whole plant damage was assessed before cutting each hill at the basal portion for tiller dissection. Each dissected tiller was inspected looking for dead (if possible) and alive stemborer larvae.

[8] = test system: Greenhouse Whitefly (Trialeurodes vaporariorum); assay: Greenhouse Whitefly, egg plant leaf disk (table 5, mixtures); conditions: solo application Oxazosulfyl, use rate 50 ppm
Method: For evaluating control of Greenhouse Whitefly (Trialeurodes vaporariorum) the test unit consisted of 96-well-microtiter plates containing a leaf disk of egg plant leaf disk with white fly eggs. The compounds or mixtures were formulated using a solution containing 75% water and 25% DMSO. Concentrations of formulated compounds or mixtures were sprayed onto the […] at 2.5 μl, using a custom built micro atomizer, at two replications.
(§2) For experimental mixtures in these tests identical volumes of both mixing partners at the desired concentrations respectively, were mixed together.
After application, microtiter plates were incubated at 23±1° C., 65±5% RH for 6 days. Mortality of hatched crawlers was then visually assessed.

[9] = test system: yellow fever mosquito (Aedes aegypti); conditions: in vivo
Method: For evaluating control of yellow fever mosquito (Aedes aegypti) the test unit consisted of 96-well-microtiter plates containing 200 μl of tap water per well and 5-15 freshly hatched A. aegypti larvae.
The compounds or mixtures were formulated using a solution containing 75% water and 25% DMSO. Different concentrations of formulated compounds or mixtures were sprayed onto the insect diet at 2.5 μl, using a custom built micro atomizer, at two replications.
as §2
After application, microtiter plates were incubated at 28±1° C., 80±5% RH for 2 days. Larval mortality was then visually assessed.

[10] = test system: vetch aphid (Megoura viciae); assay: Test 1 vetch aphid, leaf disks (mixtures); conditions: Table 1, solo application Spinetoram, use rate 2 ppm
Source text: Synergism can be described as an interaction where the combined effect of two or more compounds is greater than the sum of the individual effects of each of the compounds. The presence of a synergistic effect in terms of percent control, between two mixing partners (X and Y) can be calculated using the Colby equation (Colby, S. R., 1967, Calculating Synergistic and Antagonistic Responses in Herbicide Combinations, Weeds, 15, 20-22):
When the observed combined control effect is greater than the expected combined control effect (E), then the combined effect is synergistic.
The analysis of synergism or antagonism between the mixtures or compositions was determined using Colby's equation.
For evaluating control of vetch aphid (Megoura viciae) through contact or systemic means the test unit consisted of 24-well-microtiter plates containing broad bean leaf disks.
The compounds or mixtures were formulated using a solution containing 75% water and 25% DMSO. Concentrations of formulated compounds or mixtures were sprayed onto the leaf disks at 2.5 μl, using a custom built micro atomizer, at two replications. […]
After application, the leaf disks were air-dried and 5-8 adult aphids placed on the leaf disks inside the microtiter plate wells. […] Aphid mortality and fecundity was then visually assessed.

[11] = test system: boll weevil (Anthonomus grandis); assay: Test 3 boll weevil, insect diet with eggs (mixtures); conditions: Table 3.2, solo application Spinetoram, use rate 4 ppm
Method: For evaluating control of boll weevil (Anthonomus grandis) the test unit consisted of 24-well-microtiter plates containing an insect diet and 20-30 A. grandis eggs.
The compounds or mixtures were formulated using a solution containing 75% water and 25% DMSO. Concentrations of formulated compounds or mixtures were sprayed onto the insect diet at 20 μl, using a custom built micro atomizer, at two replications.
as §2
After application, microtiter plates were incubated at 23±1° C., 50±5% RH for 5 days. Egg and larval mortality was then visually assessed.

[12] = test system: brown planthopper (Nilaparvata lugens); assay: Test 6 brown planthopper, foliar spray (mixtures); conditions: Table 6.2, after 7 days, solo application Spinetoram, use rate 70 ppm
Method: For evaluating control of brown planthopper (Nilaparvata lugens) by foliar spray method. Clean potted rice seedlings with upper leaf portion cut are properly labeled. Placed three potted rice plants per treatment concentration/combination on top of the rotating disc (270 mm) and sprayed with the 12 mL spray solution. Treated plants are allowed to air-dry in the laboratory for about an hour. After air-drying, covered each treated rice plant. Each treated plant was infested with brown planthoppers using a suction vacuum. Plants are maintained at 27° C.±1° C., 50±5% RH and 24 hours light conditions in a holding room. Percent mortality is recorded 7 days after infestation by counting both the dead and alive brown planthoppers on the plants and on the water.

Q: For `C[n+]1c2n(c([O-])c(-c3ccccc3)c1=O)C(c1cnc(Cl)s1)CS2` (racemic) [Compound I-1, 3-(2-chlorothiazol-5-yl)-8-methyl-7-oxo-6-phenyl-2,3-dihydrothiazolo[3,2-a]pyrimidin-8-ium-5-olate], which mortality at 1 ppm [1] is on record?
A: The mortality at 1 ppm was 80%.

Q: And the mortality at 1 ppm [2]?
A: The mortality at 1 ppm was 50%.

Q: What about the mortality at 1 ppm [3] of the same compound?
A: Its mortality at 1 ppm is 54%.

Q: What about the mortality at 10 ppm [4] of the same compound?
A: The mortality at 10 ppm was 73%.

Q: And the mortality at 300 ppm [5]?
A: Its mortality at 300 ppm is 80%.

Q: And the “Feeding damage (%)” value ([6]; Chilo suppressalis neonates, foliar spraying, Dose 200 ppm, 14 DAT)?
A: The value was 15%.

Q: And the mortality at 200 ppm ([6]; Chilo suppressalis, foliar, 336 h)?
A: Its mortality at 200 ppm is 96%.

Q: And the “Feeding damage (%)” value [7]?
A: Its value is 15%.

Q: How did the Average control % [8] turn out when `CCS(=O)(=O)c1cccnc1-c1nc2cc(S(=O)(=O)C(F)(F)F)ccc2o1` [Oxazosulfyl, 2-(3-ethylsulfonyl-2-pyridyl)-5-(trifluoromethylsulfonyl)-1,3-benzoxazole, reference compound] was run?
A: The Average control % was 50%.

Q: Which Average control % [9] does the source give for `Cc1cccc2sc3nncn3c12` [Tricyclazol, tricyclazole, reference compound] here?
A: The Average control % was 50%.

Q: Which Average control % [10] does the source give for spinetoram [reference compound] here?
A: The Average control % was 50%.

Q: What about the Average control % [11] of the same compound?
A: The Average control % was 0%.

Q: What about the Average control % [12] of the same compound?
A: The Average control % was 62%.
